PMC9851200, “Multiparameter phenotypic screening for endogenous TFEB and TFE3 translocation identifies novel chemical series modulating lysosome function” (Autophagy, 2022)
“Also recorded” adds a separate entry of the source. Read-outs that look alike come from different tables or passages of the source.

What was measured:
CDC42BPG/DMPK2 = CDC42BPG/DMPK2 (Homo sapiens, UniProt Q6DT37); details: cited from earlier work
PRKD2 = biological target: T1, PRKD2 (Homo sapiens, UniProt Q9BZL6); details: cited from earlier work
T1 sequence (Q9BZL6 1-878): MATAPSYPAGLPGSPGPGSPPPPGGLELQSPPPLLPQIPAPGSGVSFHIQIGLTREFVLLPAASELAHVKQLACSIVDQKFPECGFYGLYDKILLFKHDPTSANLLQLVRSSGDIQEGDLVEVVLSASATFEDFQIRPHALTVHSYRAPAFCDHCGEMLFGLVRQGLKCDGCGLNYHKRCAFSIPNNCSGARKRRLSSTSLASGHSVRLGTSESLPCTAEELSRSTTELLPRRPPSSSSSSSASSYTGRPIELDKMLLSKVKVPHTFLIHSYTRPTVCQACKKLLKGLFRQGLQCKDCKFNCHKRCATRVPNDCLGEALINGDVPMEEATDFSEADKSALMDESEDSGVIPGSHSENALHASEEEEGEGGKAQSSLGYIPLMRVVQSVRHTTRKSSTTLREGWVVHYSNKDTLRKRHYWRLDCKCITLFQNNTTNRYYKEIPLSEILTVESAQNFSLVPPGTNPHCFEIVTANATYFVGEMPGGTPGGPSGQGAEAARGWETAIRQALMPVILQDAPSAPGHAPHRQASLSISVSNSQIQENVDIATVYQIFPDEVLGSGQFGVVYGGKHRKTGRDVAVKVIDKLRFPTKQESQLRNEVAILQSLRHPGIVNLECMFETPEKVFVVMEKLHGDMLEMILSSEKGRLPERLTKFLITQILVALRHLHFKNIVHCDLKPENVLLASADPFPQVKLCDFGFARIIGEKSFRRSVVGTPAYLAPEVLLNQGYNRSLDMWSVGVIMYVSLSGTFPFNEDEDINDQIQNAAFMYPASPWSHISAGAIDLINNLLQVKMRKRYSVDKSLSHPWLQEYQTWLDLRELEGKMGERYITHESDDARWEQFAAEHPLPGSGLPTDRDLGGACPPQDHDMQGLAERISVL

CSNK1E = CSNK1E (Homo sapiens, UniProt P49674); details: cited from earlier work
PIKFYVE = PIKFYVE (Homo sapiens, UniProt Q9Y2I7); details: cited from earlier work
SH-SY5Y cells = details: for DQ Intensity / DQ Spot: PKIS2 primary screening; for DQ Intensity: DQ Red BSA intensity; for DQ Spot: DQ Red BSA spot count
Description: The PKIS2 Library was supplied by The Structural Genomics Consortium at the University of North Carolina at Chapel Hill.

endogenous TFE3 = assay: TFE3 nuclear translocation, immunocytochemistry high-content imaging; type: cell-based; details: for TFE3 %: PKIS2 primary screening; for nTFE3 %: primary screen, 1 µM; for nTFE3 % / TFE3 translocation (in words) / EC50 / Best-Fit Values Span: SH-SY5Y; for Best-Fit Values Span: TFE3 assay concentration response; for Summary: activity in TFE3 assays compared with original NK-140, OT activity
JAK1(JH2) = biological target: T2, JAK1(JH2) (Homo sapiens, UniProt P23458); details: cited from earlier work
T2 construct: JAK1(JH2)

CDC42BPB/MRCKB = CDC42BPB/MRCKB (Homo sapiens, UniProt Q9Y5S2); details: cited from earlier work
ACVR1B = biological target: T3, ACVR1B (Homo sapiens, UniProt P36896); details: cited from earlier work
T3 sequence (P36896 24-505): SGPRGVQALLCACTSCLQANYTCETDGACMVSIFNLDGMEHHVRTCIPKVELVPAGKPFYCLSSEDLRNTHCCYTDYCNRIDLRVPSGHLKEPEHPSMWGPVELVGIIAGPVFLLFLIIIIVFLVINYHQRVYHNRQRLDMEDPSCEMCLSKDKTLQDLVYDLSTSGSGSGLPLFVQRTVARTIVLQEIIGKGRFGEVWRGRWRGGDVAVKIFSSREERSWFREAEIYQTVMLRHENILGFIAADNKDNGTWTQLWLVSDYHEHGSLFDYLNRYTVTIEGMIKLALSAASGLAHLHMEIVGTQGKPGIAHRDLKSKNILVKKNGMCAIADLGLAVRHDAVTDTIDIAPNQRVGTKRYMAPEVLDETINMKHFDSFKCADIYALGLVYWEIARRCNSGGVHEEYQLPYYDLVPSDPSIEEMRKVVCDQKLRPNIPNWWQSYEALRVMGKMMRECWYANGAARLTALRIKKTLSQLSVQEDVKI

endogenous TFEB = assay: TFEB nuclear translocation, immunocytochemistry high-content imaging; type: cell-based; details: for TFEB %: PKIS2 primary screening; for TFEB translocation (in words): SH-SY5Y
PRKD3 = biological target: T4, PRKD3 (Homo sapiens, UniProt O94806); details: cited from earlier work
T4 sequence (O94806 1-890): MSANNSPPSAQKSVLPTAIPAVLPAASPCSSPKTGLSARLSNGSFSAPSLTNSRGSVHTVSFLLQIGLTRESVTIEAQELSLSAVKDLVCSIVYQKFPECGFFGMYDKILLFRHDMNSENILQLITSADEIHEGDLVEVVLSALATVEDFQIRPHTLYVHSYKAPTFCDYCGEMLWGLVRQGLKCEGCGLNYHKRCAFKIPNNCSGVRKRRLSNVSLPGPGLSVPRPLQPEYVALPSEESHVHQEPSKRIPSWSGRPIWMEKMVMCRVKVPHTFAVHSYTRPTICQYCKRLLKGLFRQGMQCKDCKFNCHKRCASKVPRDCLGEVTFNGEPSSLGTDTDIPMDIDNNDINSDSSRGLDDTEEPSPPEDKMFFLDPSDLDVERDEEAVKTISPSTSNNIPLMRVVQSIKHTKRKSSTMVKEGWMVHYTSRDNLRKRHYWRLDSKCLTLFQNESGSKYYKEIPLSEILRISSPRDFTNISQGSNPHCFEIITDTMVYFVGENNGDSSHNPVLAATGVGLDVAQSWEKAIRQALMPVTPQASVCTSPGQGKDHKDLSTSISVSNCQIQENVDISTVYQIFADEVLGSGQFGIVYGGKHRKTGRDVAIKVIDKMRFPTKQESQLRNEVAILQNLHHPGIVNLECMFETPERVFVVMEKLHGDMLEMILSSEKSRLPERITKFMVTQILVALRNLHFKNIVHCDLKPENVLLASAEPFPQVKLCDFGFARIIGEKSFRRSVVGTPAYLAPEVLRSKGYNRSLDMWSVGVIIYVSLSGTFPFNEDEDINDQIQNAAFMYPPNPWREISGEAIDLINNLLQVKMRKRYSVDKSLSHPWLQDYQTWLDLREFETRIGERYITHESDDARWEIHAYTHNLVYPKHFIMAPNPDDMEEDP

T2 sequence (P23458 583-855 limits assumed): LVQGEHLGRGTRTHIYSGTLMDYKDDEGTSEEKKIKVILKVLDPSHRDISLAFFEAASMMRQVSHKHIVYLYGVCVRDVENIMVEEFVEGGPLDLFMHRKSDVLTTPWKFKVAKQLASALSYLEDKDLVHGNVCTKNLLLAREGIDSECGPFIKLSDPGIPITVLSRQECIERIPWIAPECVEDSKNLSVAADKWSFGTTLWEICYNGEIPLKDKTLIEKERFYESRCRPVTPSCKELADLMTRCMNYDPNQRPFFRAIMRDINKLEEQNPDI
Chain of CSNK1E (P49674 whole entry): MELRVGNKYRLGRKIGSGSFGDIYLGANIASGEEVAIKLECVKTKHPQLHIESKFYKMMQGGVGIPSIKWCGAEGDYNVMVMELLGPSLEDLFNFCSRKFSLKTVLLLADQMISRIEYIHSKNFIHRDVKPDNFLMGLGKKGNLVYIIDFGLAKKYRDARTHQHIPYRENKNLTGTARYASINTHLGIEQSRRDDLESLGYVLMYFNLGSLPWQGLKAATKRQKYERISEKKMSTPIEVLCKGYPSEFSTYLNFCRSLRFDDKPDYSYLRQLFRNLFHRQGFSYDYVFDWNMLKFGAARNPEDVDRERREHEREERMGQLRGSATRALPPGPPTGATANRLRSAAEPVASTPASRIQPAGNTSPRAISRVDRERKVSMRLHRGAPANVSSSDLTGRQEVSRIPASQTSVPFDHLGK
Chain of CDC42BPB/MRCKB (Q9Y5S2 whole entry): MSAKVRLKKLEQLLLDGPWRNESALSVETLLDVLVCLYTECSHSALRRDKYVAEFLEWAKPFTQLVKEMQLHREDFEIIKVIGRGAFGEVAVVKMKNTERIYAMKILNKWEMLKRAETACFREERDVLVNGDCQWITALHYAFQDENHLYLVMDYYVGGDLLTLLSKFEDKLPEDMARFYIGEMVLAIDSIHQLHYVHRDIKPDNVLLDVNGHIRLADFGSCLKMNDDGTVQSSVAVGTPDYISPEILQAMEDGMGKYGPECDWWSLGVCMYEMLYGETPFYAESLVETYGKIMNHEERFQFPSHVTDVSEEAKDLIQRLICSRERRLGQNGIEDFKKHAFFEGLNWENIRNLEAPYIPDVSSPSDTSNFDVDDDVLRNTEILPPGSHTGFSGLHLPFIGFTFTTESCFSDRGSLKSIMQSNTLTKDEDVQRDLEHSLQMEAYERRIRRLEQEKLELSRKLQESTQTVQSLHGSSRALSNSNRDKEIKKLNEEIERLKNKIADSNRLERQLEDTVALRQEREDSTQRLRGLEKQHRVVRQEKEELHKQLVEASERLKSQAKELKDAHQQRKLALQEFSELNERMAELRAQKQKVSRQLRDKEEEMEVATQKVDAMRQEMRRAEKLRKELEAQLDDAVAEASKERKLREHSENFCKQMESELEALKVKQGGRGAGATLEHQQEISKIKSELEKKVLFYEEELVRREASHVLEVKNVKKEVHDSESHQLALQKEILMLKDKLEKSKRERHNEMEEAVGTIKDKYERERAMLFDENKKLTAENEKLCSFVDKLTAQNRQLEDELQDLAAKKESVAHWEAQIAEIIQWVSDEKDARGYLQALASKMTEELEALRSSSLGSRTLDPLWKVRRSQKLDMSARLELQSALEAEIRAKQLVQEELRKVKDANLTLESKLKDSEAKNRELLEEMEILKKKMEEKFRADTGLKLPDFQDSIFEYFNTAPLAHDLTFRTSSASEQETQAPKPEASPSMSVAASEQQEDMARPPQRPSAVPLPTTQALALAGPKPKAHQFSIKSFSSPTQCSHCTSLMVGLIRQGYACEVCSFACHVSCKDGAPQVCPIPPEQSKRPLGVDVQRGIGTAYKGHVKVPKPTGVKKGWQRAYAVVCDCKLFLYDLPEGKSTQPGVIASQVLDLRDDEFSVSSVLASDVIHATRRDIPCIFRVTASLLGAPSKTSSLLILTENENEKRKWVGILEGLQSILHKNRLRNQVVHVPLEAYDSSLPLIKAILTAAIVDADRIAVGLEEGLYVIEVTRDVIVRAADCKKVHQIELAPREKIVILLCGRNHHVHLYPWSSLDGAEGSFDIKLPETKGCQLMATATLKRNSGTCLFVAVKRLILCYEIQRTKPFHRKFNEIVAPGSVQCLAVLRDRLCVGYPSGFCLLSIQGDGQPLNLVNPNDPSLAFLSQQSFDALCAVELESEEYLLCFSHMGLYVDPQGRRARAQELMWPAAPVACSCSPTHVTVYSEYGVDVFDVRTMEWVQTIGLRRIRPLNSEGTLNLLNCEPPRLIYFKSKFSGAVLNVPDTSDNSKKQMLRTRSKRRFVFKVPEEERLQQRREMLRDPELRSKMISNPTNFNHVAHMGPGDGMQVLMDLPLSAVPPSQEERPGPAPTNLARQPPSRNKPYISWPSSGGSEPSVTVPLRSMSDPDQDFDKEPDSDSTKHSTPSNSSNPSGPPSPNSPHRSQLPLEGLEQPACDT
Chain of PIKFYVE (Q9Y2I7 whole entry): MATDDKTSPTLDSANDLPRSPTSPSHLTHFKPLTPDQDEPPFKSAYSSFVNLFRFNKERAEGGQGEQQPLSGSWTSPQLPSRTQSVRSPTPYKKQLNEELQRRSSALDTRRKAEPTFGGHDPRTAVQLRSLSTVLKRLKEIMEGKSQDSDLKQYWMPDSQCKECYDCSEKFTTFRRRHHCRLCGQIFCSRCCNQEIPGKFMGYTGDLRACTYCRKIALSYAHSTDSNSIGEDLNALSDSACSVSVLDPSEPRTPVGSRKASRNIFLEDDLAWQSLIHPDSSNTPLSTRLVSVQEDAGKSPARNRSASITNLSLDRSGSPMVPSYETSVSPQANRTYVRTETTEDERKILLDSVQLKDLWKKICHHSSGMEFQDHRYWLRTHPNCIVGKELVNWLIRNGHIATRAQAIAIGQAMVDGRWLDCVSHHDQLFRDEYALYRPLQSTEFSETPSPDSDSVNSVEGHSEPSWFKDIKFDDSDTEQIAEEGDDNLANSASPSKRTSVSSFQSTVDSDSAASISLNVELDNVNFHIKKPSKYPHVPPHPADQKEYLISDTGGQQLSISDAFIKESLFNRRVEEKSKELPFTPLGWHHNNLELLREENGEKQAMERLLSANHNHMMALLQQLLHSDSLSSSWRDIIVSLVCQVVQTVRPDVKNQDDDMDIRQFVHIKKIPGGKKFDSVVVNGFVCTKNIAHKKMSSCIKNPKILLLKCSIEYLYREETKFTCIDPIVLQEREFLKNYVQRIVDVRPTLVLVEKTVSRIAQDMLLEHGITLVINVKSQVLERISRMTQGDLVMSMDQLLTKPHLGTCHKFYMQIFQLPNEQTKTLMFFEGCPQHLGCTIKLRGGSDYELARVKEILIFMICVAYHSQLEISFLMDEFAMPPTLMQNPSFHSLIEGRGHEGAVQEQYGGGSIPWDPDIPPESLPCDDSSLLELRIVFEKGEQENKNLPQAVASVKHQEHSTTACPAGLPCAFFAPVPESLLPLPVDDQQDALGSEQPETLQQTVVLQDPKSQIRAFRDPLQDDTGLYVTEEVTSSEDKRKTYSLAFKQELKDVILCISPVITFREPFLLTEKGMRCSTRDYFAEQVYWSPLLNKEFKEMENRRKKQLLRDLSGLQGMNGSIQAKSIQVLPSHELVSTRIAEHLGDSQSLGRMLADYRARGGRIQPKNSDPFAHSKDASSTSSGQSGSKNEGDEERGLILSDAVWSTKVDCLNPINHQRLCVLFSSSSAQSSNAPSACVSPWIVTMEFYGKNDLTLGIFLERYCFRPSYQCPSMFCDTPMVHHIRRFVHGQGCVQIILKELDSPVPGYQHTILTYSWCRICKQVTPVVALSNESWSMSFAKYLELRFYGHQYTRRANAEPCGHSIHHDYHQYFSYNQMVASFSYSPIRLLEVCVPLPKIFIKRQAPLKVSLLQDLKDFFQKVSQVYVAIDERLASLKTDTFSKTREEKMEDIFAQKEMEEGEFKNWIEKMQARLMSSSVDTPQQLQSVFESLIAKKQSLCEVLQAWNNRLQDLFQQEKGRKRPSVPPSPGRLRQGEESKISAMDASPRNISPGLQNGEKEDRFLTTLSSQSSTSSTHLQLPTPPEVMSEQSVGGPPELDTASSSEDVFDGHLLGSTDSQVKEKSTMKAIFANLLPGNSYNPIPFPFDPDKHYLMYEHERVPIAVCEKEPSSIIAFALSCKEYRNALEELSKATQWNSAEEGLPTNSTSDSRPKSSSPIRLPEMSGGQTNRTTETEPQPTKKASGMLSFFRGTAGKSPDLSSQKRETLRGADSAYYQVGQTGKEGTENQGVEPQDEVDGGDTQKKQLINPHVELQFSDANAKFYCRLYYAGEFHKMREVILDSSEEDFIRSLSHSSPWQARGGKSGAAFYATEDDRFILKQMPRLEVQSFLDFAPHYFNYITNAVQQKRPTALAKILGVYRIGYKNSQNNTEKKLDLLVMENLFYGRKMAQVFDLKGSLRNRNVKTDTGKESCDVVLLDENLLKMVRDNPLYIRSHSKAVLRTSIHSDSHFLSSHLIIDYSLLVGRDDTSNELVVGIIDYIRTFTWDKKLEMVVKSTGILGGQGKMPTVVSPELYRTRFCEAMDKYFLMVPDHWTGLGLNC

SMILES | KINOMEscan binding CDC42BPG/DMPK2 (CDC42BPG/DMPK2) [%] | KINOMEscan binding PRKD2 (PRKD2) [%] | KINOMEscan binding CSNK1E (CSNK1E) [%] | KINOMEscan binding PIKFYVE (PIKFYVE) [%] | DQ Intensity (SH-SY5Y cells) | DQ Spot (SH-SY5Y cells) | TFE3 % (endogenous TFE3) [%] | nTFE3 % (endogenous TFE3; 24 h) [%] | KINOMEscan binding JAK1(JH2) (JAK1(JH2)) [%] | KINOMEscan binding CDC42BPB/MRCKB (CDC42BPB/MRCKB) [%] | KINOMEscan binding ACVR1B (ACVR1B) [%] | TFEB % (endogenous TFEB) [%] | KINOMEscan binding PRKD3 (PRKD3) [%] | TFE3 translocation (in words) (endogenous TFE3; 24 h treatment) | TFEB translocation (in words) (endogenous TFEB; 24 h treatment) | Summary (endogenous TFE3) | also measured
Cc1ccc(-c2nc(Nc3ccncc3)c3ccccc3n2)s1 [GSK189015] | 13 | 14 | 22 | 63 | 116.90 | 105.30 | 15.06 | 15 | 38 | 21 | 0 | 4.14 | 22 | – | – | – | –
COc1ccc2nc(-c3cccc(C)n3)nc(Nc3ccncc3)c2c1 [GSK204919] | 91.1 | 98.8 | 64 | 81 | 144.99 | 139.38 | 7.07 | 7 | 80 | 94.1 | – | 4.22 | 100 | did not show TFEB and TFE3 activation | did not show TFEB and TFE3 activation | – | –
Cc1cccc(-c2cc(Nc3ccncc3)c3ccccc3n2)n1 [GSK223675] | 7 | 96 | 50 | 23 | 136.99 | 120.77 | 9.28 | 9.2 | 5 | 0 | 88 | 7.90 | 100 | – | – | – | –
Cc1cccc(-c2nc(C)cc(Nc3ccncc3)n2)n1 [GSK257997] | 89 | 80 | 42 | 27 | 78.64 | 86.70 | 9.74 | 9.7 | 0 | 81 | 78 | 2.98 | 85 | did not show TFEB and TFE3 activation | did not show TFEB and TFE3 activation | – | –
Cc1cccc(-c2nc(Nc3ccc4ncsc4c3)c3ccccc3n2)n1 [NK140] | – | – | – | – | – | – | – | – | – | – | – | – | – | modest TFEB and TFE3 translocation | modest TFEB and TFE3 translocation | Original | DQ Red BSA fluorescence intensity (in words) (SH-SY5Y cells; SH-SY5Y, 24 h treatment): no increases in DQ Red BSA intensity; DQ Red BSA intensity (in words) (SH-SY5Y cells; SH-SY5Y, 48 h treatment): additional increase in DQ Red BSA intensity; EC50 (endogenous TFE3; Homo sapiens, 24 h treatment, estimated, read-out: Cellular EC50 against TFE3): 0.65 µM; EC50 (endogenous TFE3; Homo sapiens, TFE3 assay, 24 h, µM, read-out: Best-Fit Values EC50 (converted)): 0.64 µM; TFE3 translocation (in words) (endogenous TFE3; 48 h treatment): induced; also recorded: elevated TFEB and TFE3 translocation; Best-Fit Values Span (endogenous TFE3; 24 h): 37.55; TFEB translocation (in words) (endogenous TFEB; 48 h treatment): induced; also recorded: elevated TFEB and TFE3 translocation
Cc1cccc(-c2nc(Nc3ccc4nn(C)cc4c3)c3ccccc3n2)n1 [NK167] | – | – | – | – | – | – | – | – | – | – | – | – | – | – | – | Weaker, Strong OT activity | EC50 (endogenous TFE3; TFE3 assay, 24 h, second EC50 of biphasic/bell-shaped fit or OT (off-target) activity, unit inferred, read-out: Best-Fit Values EC50 (converted)): 1.05 µM; EC50 (endogenous TFE3; TFE3 assay, 24 h, µM, read-out: Best-Fit Values EC50 (converted)): 1.04 µM
Cc1cccc(-c2nc(Nc3ccncc3)c3ccccc3n2)n1 [NK215] | – | – | – | – | – | – | – | – | – | – | – | – | – | – | – | Weaker | KINOMEscan CDC42BPG/DMPK2 (CDC42BPG/DMPK2): 76; KINOMEscan PRKD2 (PRKD2; PRKD2, Published KINOMEscan, ref original PKIS2 published data): 99; KINOMEscan CSNK1E (CSNK1E; CSNK1E, Published KINOMEscan, ref original PKIS2 published data): 77; KINOMEscan PIKFYVE (PIKFYVE; kinase PIKFYVE, Published KINOMEscan, ref original PKIS2 published data): 57; EC50 (endogenous TFE3; Homo sapiens, 24 h, read-out: Best-Fit Values EC50): 2.04 µM; Best-Fit Values Span (endogenous TFE3; 24 h): 18.17; KINOMEscan JAK1(JH2domain-pseudokinase) (JAK1(JH2); JAK1(JH2domain-pseudokinase), Published KINOMEscan, ref original PKIS2 published data): 74; KINOMEscan CDC42BPB/MRCKB (CDC42BPB/MRCKB): 63; KINOMEscan ACVR1B (ACVR1B): 94.3; KINOMEscan PRKD3 (PRKD3; kinase PRKD3, Published KINOMEscan, ref original PKIS2 published data): 69
